Measurements reported in US9051595B2, “Malt1 specific cleavage in assay and screening method” (University of Lausanne, priority 2007, dated 2015).
“Also recorded” adds a separate entry of the source. Peptide text beside a SMILES is read from it. * marks the point of attachment. Cbz = O=C(OCc1ccccc1)*; CH2F = FC*

Tests used:
Assay type in all cases: cell-based, human
Jurkat T cells = assay: Stimulation-induced adhesion of Jurkat T cells to fibronectin; conditions: FIG. 11f
Procedure: Central areas of tissue culture dishes (35-mm×10-mm) were coated for 90 min at 25° C. with 50 μl of fibronectin solution (40 μg/ml; Roche). Coated dishes were washed three times with PBS (without Ca2+ and Mg2+) and were blocked for 2 h with 1% (wt/vol) BSA in PBS. Cells were washed with Hank's balanced-salt solution (Gibco) and were left unstimulated or were stimulated at 37° C. for 30 min with MnCl2 (1 mM) or PMA (100 ng/ml), or for 5 min with anti-human CD3 and anti-CD28 (see example 1). Subsequently, cell suspensions were added to fibronectin-coated tissue culture dishes followed by incubation for additional 30 min at 37° C. Non-adherent cells were removed by washing of the dishes three to five times with Hank's balanced-salt solution. Adherent cells were counted in six separate fields with a microscope with an ocular counting reticule.
To test the efficiency of inhibitors, Jurkat T cells stimulated or not with PMA and ionomycin for 20 min are mechanically lysed in cleavage assay buffer (see example 4) in the absence or presence of increasing concentrations of a irreversble cell permeable inhibitor peptide (z-VRPR-fink). This inhibitor was designed based on an optimal substrate cleavage sequence reported for the plant metacaspase AtMC9 (see ref. by Vercammen et al. 2006, J. Mol. Biol., 364(4):625-36). Malt1 protease activity is determined as described in example 4. […]

Bcl10 [1] = assay: Activation-induced cleavage of Bcl10 in living Jurkat T cells and CTLs (Western blot); conditions: Jurkat T cells or CTLs pre-incubated 1 h with inhibitor, PMA and ionomycin; FIGS. 11b, c
NF-κB = assay: anti-CD3/CD28-induced NF-κB activation in Jurkat T cells; conditions: FIG. 11d
IL-2 = IL-2 production of Jurkat cells stimulated with Raji cells and superantigen SEE; conditions: FIG. 11e
Procedure: To test the efficiency of inhibitors, Jurkat T cells stimulated or not with PMA and ionomycin for 20 min are mechanically lysed in cleavage assay buffer (see example 4) in the absence or presence of increasing concentrations of a irreversble cell permeable inhibitor peptide (z-VRPR-fink). This inhibitor was designed based on an optimal substrate cleavage sequence reported for the plant metacaspase AtMC9 (see ref. by Vercammen et al. 2006, J. Mol. Biol., 364(4):625-36). Malt1 protease activity is determined as described in example 4. […] Moreover, experiments are performed to assess the effect of the inhibitor on anti-CD3/CD28-induced NF-κB activation in Jurkat T cells, on IL-2 production of Jurkat cells stimulated by incubation with antigen-presenting cells (Raji cells in combination with the superantigen SEE) and on stimulation-induced adhesion to fibronectin (see example 7)).

caspase-8 = assay: FasL-induced caspase-8 activation in Jurkat cells (Western blot); conditions: Jurkat cells pretreated with inhibitor, hexameric recombinant FasL; FIG. 5c
Procedure: (§1) In an analogue experiment, Jurkat cells were pretreated with the pan-caspase inhibitor zVAD-ink or solvent control, and stimulated with anti-CD3 and anti-CD28 antibodies or hexameric recombinant FasL for the indicated times. Postnuclear lysates were analyzed by Western blot with the indicated primary antibodies (FIG. 5c). A non-specific band (n.s.) of the anti-Bcl10 blot served as a loading control.

Bcl10 [2] = assay: Western blot for the faster migrating Bcl10 species (Bcl10 cleavage) in stimulated Jurkat cells pre-treated with inhibitors; conditions: for anti-CD3/CD28-induced reduction in the apparent molecular weight of Bcl10: stimulated with anti-CD3 and anti-CD28, FIG. 5c; for generation of the faster migrating Bcl10 species: Jurkat cells pre-incubated 30 min with inhibitor, stimulated with CD3/CD28, FIG. 2a
Procedure: For short term stimulations, cells were re-suspended at a density of 5×10^7 cells/mi in RPMI with 0.5% serum and pre-warmed for 10 min at 37° C. before addition of the stimulating agent.
T-cell stimulation was initiated by addition of PMA (10 ng/ml, Alexis) and ionomycin (1 μM, Calbiochem) (P/I) or a combination of anti-human CD3ε (10 μg/ml of OKT3, Apotech) and anti-CD28 (10 μg/ml of CD28.2, Immunotech) antibodies (CD3/CD28), immediately followed by addition of 5 μg/ml of cross-linking goat anti-mouse antibody (Southern Biotech).
Stimulations were stopped by addition of ice-cold Tris-NaCl buffer (20 mM Tris-HCl pH 7.4, 150 mM NaCl), and pelleted cells were lysed in Tris-NaCl lysis buffer containing 1% NP40, proteinase inhibitors (Complete, Roche) and phosphatase inhibitors (cocktails I and II, Sigma).
Postnuclear cell lysates were boiled with reducing SDS-sample buffer and analyzed on 16×20 cm gels by 15% SDS-PAGE according to Anderson, N. L. & Anderson, N. G. Analytical techniques for cell fractions. XXII. Two-dimensional analysis of serum and tissue proteins: multiple gradient-slab gel electrophoresis. Anal Biochem 85, 341-54 (1978).
Primary antibodies used are monoclonal mouse anti-phospho ERK (Sigma), rabbit anti-phospho-IκBα (5A5, Cell Signalling), rabbit anti-IκBα (Sigma), and rabbit anti-Bcl10 (H-197, Santa Cruz).
In a first approach, Jurkat cells were pre-incubated with either the pan-PKC inhibitor bisindolyl-maleimide VIII (BIM) or with Gö6976, an inhibitor of classical (Ca2+- and DAG-dependent) PKC isoforms, before stimulation with CD3/CD28 as indicated in Example 1. For pre-incubation, the cells were incubated with […] Gö6976 (Calbiochem) or 500 nM Bisindoleylmaleimide VIII acetate (Alexis), or solvent control for 30 min at 37° in RPMI with 0.5% serum directly prior to stimulation.
Cell lysis and western blots was done as in Example 1. The primary antibody for the experiment with VSV-tagged wt or VSV-tagged Carma1-DN and Carma1-coiled-coil construct is monoclonal mouse anti-VSV (P5D4, Sigma). For Carma1, a rabbit anti-Carma1 (AL220, Alexis) antibody was used.
(§2) For testing if the observed proteolytic activity is an indirect effect of Malt1 on other proteases, Jurkat cells were pretreated with the lysosomal or proteasomal inhibitors (NH4^+/leupeptin or MG132) or solvent control before stimulation with PMA and ionomycin, and postnuclear lysates were analyzed by Western blot as indicated.
as §1

P-IκB = assay: Western blot for P-IκB in PMA/ionomycin-stimulated Jurkat cells; conditions: Jurkat cells pretreated with inhibitor, PMA and ionomycin; FIG. 5b
Procedure: as §2

Compound: z-VRPR-fmk (Cbz-VRPR-CH2F)
- capacity of T cells to adhere to fibronectin upon T-cell activation (Jurkat T cells): impairs
- activation-induced cleavage of Bcl10 (Bcl10 [1]): reduction
- capacity of T cells to activate NF-κB (NF-κB): impairs
- capacity of T cells to produce IL-2 (IL-2): impairs

Compound: COC(=O)C[C@H](NC(=O)[C@H](C)NC(=O)[C@@H](NC(=O)OCc1ccccc1)C(C)C)C(=O)CF [zVAD-fmk] (Cbz-Val-Ala-Asp(OMe)-CH2F)
- FasL-induced caspase-8 activation (caspase-8): potently inhibited
- anti-CD3/CD28-induced reduction in the apparent molecular weight of Bcl10 (Bcl10 [2]; Jurkat cells pretreated with inhibitor): no effect
- anti-CD3/CD28-induced reduction in the apparent molecular weight of Bcl10 (Bcl10 [2]; Jurkat cells pretreated with inhibitor, listed as Z-VAD-fmk): lack of an effect

Compound: Cn1c2ccccc2c2c3c(c4c5ccccc5n(CCC#N)c4c21)CNC3=O [Gö6976]
- generation of the faster migrating Bcl10 species (Bcl10 [2]): not Gö6976 prevented

Compound: Cn1cc(C2=C(c3cn(CCCN)c4ccccc34)C(=O)NC2=O)c2ccccc21 [BIM, bisindolyl-maleimide VIII]
- generation of the faster migrating Bcl10 species (Bcl10 [2]): prevented

Compound: CC(C)C[C@@H](C=O)NC(=O)[C@H](CC(C)C)NC(=O)[C@H](CC(C)C)NC(=O)OCc1ccccc1 [MG132] (Cbz-Leu-Leu-Leu-aldehyde)
- stabilization of P-I[…]B (P-IκB): efficiently stabilized
- generation of the faster migrating Bcl10 species corresponding to Bcl10 cleavage (Bcl10 [2]; Jurkat cells pretreated with inhibitor, stimulated with PMA and ionomycin, FIG. 5a, 5b): did not affect; also recorded: lack of an effect
